Data on 19 compounds can be found in patent US20110301170A1, “Inhibitors of JNK” (priority 2010, published 2011).

This test has as its system T1, JNK.
T1 construct: Human JNK2α2 assay contains 1 nM enzyme; Human JNK1α1 assay contains 2 nM enzyme
Put plainly: JNK Assay in vitro (phosphorylation of GST-ATF2 with [γ-33P] ATP). The note with it: IC50 affinity values; JNK isoform (JNK1α1, JNK2α2 or JNK3) not stated; Km concentrations of ATP and substrate; 30° C. for 30 min. The class given is biochemical, Human. The method, then: JNK activity was measured by phosphorylation of GST-ATF2 (19-96) with [-^33P] ATP. […] Human JNK2α2 assay contains 1 nM enzyme, 1 μM ATF2, 8 μM ATP with 1 uCi [γ-^33P] ATP. Human JNK1α1 assay contains 2 nM enzyme, 1 μM ATF2, 6 μM ATP with 1 μCi [γ-^33P] ATP. Human JNK3 (Upstate Biotech #14-501M) assay contains 2 nM enzyme, 1 μM ATF2, 4 μM ATP with 1 μCi [γ-^33P] ATP. The enzyme assay was carried out in the presence or absence of several compound concentrations. JNK and compound were pre-incubated for 10 min., followed by initiation of the enzymatic reaction by adding ATP and the substrate. The reaction mixture was incubated at 30° C. for 30 min. At the end of incubation, the reaction was terminated by transferring 25 μl of the reaction mixture to 150 μl of 10% glutathione Sepharose® slurry (Amersham #27-4574-01) containing 135 mM EDTA. The reaction product was captured on the affinity resin, and washed on a filtration plate (Millipore, MABVNOB50) with phosphate buffered saline for six times to remove free radionucleotide. The incorporation of ^33P into ATF2 was quantified on a microplate scintillation counter (Packard Topcount). Compound inhibition potency on JNK was measured by IC50 value generated from ten concentration inhibition curves fitted into the 3-parameter model: % inhibition=Maximum/(1+(IC50/[Inhibitor])^slope). Data were analyzed on Microsoft Excel for parameter estimation.

As to `Cc1nnc2n1CCN(C(=O)[C@H]1CC[C@H](Nc3nccc(-n4ccc5c(OCCCS(C)(=O)=O)cccc54)n3)CC1)C2` [Compound 23, (4-{4-[4-(3-Methanesulfonyl-propoxy)-indol-1-yl]-pyrimidin-2-ylamino}-cyclohexyl)-(3-methyl-5,6-dihydro-8H-[1,2,4]triazolo[4,3-a]pyrazin-7-yl)-methanone], the midpoint of inhibition, the IC50, lay at 32 nM.

For the compound `Cc1cccc2c1nnn2-c1ccnc(N[C@H]2CC[C@H](C(=O)N3CCn4cnnc4C3)CC2)n1` [Compound 34, (5,6-Dihydro-8H-[1,2,4]triazolo[4,3-a]pyrazin-7-yl)-{4-[4-(4-methyl-benzotriazol-1-yl)-pyrimidin-2-ylamino]-cyclohexyl}-methanone], inhibition was half-maximal at 59 nM (IC50). Turning to `Cc1cnc2n1CCN(C(=O)[C@H]1CC[C@H](Nc3nccc(-n4ccc5c(OC(F)F)cccc54)n3)CC1)C2` [Compound 11, {4-[4-(4-Difluoromethoxy-indol-1-yl)-pyrimidin-2-ylamino]-cyclohexyl}-(3-methyl-5,6-dihydro-8H-imidazo[1,2-a]pyrazin-7-yl)-methanone], half-maximal inhibition (IC50) was put at 97 nM. Compared with the last compound, the IC50 is about 1.6-fold higher. For `O=C([C@H]1CC[C@H](Nc2nccc(-c3cnc4c(C(F)(F)F)cccn34)n2)CC1)N1CCn2cnnc2C1` [Compound 42, (5,6-Dihydro-8H-[1,2,4]triazolo[4,3-a]pyrazin-7-yl)-{4-[4-(8-trifluoromethyl-imidazo[1,2-a]pyridin-3-yl)-pyrimidin-2-ylamino]-cyclohexyl}-methanon] the value was 205 nM.

Consider `O=C([C@H]1CC[C@H](Nc2nccc(-n3ccc4c(OC(F)F)cccc43)n2)CC1)N1CCn2cnnc2C1` [Compound 27, {4-[4-(4-Difluoromethoxy-indol-1-yl)-pyrimidin-2-ylamino]-cyclohexyl}-(5,6-dihydro-8H-[1,2,4]triazolo[4,3-a]pyrazin-7-yl)-methanone], for which the half-maximal inhibitory concentration (IC50) (commonly the point on the concentration scale where inhibition reaches its midpoint) was determined as 269 nM.

For the compound `CS(=O)(=O)CCCOc1cccc2c1cnn2-c1ccnc(N[C@H]2CC[C@H](C(=O)N3CCn4cc(C(F)(F)F)nc4C3)CC2)n1` [Compound 13, (4-{4-[4-(3-Methanesulfonyl-propoxy)-indazol-1-yl]-pyrimidin-2-ylamino}-cyclohexyl)-(2-trifluoromethyl-5,6-dihydro-8H-imidazo[1,2-a]pyrazin-7-yl)-methanone], the IC50 was determined as 12 nM. Against the preceding compound, the IC50 is about 22-fold lower.

`C=C(C)c1cccc2c1ccn2-c1ccnc(N[C@H]2CC[C@H](C(=O)N3CCn4c(C)nnc4C3)CC2)n1` [Compound 26, {4-[4-(4-Isopropenyl-indol-1-yl)-pyrimidin-2-ylamino]-cyclohexyl}-(3-methyl-5,6-dihydro-8H-[1,2,4]triazolo[4,3-a]pyrazin-7-yl)-methanone] came in with a 50% inhibitory concentration (IC50) of 174 nM. This IC50 lies about 14-fold higher than the previous one.

`O=C([C@H]1CC[C@H](Nc2nccc(-n3ncc4c(OCC5CCS(=O)(=O)C5)cccc43)n2)CC1)N1CCn2ccnc2C1` (stereo partly shown) [Compound 15, (5,6-Dihydro-8H-imidazo[1,2-a]pyrazin-7-yl)-(4-{4-[4-(1,1-dioxo-tetrahydro-1λ6-thiophen-3-ylmethoxy)-indazol-1-yl]-pyrimidin-2-ylamino}-cyclohexyl)-methanone] yielded a 50% inhibitory concentration (IC50) of 12 nM. The result for `C=C(C)c1cccc2c1ccn2-c1ccnc(N[C@H]2CC[C@H](C(=O)N3CCn4c(C)cnc4C3)CC2)n1` [Compound 10, {4-[4-(4-Isopropenyl-indol-1-yl)-pyrimidin-2-ylamino]-cyclohexyl}-(3-methyl-5,6-dihydro-8H-imidazo[1,2-a]pyrazin-7-yl)-methanone] reads 65 nM. The result for `O=C([C@H]1CC[C@@H](Nc2nccc(-n3nnc4c(C(F)(F)F)cccc43)n2)CC1)N1CCn2cnnc2C1` [Compound 37, (5,6-Dihydro-8H-[1,2,4]triazolo[4,3-a]pyrazin-7-yl)-{4-[4-(4-trifluoromethyl-benzotriazol-1-yl)-pyrimidin-2-ylamino]-cyclohexyl}-methanone] reads 180 nM; that for `Cc1nnc2n1CCN(C(=O)[C@H]1CC[C@H](Nc3nccc(-n4ccc5c(OC(F)F)cccc54)n3)CC1)C2` [Compound 28, {4-[4-(4-Difluoromethoxy-indol-1-yl)-pyrimidin-2-ylamino]-cyclohexyl}-(3-methyl-5,6-dihydro-8H-[1,2,4]triazolo[4,3-a]pyrazin-7-yl)-methanone], 228 nM; that for `O=C([C@H]1CC[C@H](Nc2nccc(-n3ccc4c(OCC5CCS(=O)(=O)C5)cccc43)n2)CC1)N1CCn2cnnc2C1` (stereo partly shown) [Compound 24, (5,6-Dihydro-8H-[1,2,4]triazolo[4,3-a]pyrazin-7-yl)-(4-{4-[4-(1,1-dioxo-tetrahydro-1λ6-thiophen-3-ylmethoxy)-indol-1-yl]-pyrimidin-2-ylamino}-cyclohexyl)-methanone], 17 nM. In the case of `Cc1nnc2n1CCN(C(=O)[C@H]1CC[C@H](Nc3nccc(-c4cnc5c(C(F)(F)F)cccn45)n3)CC1)C2` [Compound 43, (3-Methyl-5,6-dihydro-8H-[1,2,4]triazolo[4,3-a]pyrazin-7-yl)-{4-[4-(8-trifluoromethyl-imidazo[1,2-a]pyridin-3-yl)-pyrimidin-2-ylamino]-cyclohexyl}-methanone], half-maximal inhibition (IC50) required 234 nM. Turning to `C=C(C)c1cccc2c1ccn2-c1ccnc(N[C@H]2CC[C@H](C(=O)N3CCn4cnnc4C3)CC2)n1` [Compound 25, (5,6-Dihydro-8H-[1,2,4]triazolo[4,3-a]pyrazin-7-yl)-{4-[4-(4-isopropenyl-indol-1-yl)-pyrimidin-2-ylamino]-cyclohexyl}-methanone], the IC50 was 191 nM. The compound `Cc1cccc2c1nnn2-c1ccnc(N[C@H]2CC[C@H](C(=O)N3CCn4c(C)nnc4C3)CC2)n1` [Compound 35, {4-[4-(4-Methyl-benzotriazol-1-yl)-pyrimidin-2-ylamino]-cyclohexyl}-(3-methyl-5,6-dihydro-8H-[1,2,4]triazolo[4,3-a]pyrazin-7-yl)-methanone] registered an IC50 of 38 nM. For `Cc1cccc2c1nnn2-c1ccnc(N[C@H]2CC[C@H](C(=O)N3CCn4cc(C(F)(F)F)nc4C3)CC2)n1` [Compound 33, {4-[4-(4-Methyl-benzotriazol-1-yl)-pyrimidin-2-ylamino]-cyclohexyl}-(2-trifluoromethyl-5,6-dihydro-8H-imidazo[1,2-a]pyrazin-7-yl)-methanone] the value was 58 nM. For `Cc1nnc2n1CCN(C(=O)[C@H]1CC[C@H](Nc3nccc(-n4nnc5c(C(C)(C)O)cccc54)n3)CC1)C2` [Compound 39, (4-{4-[4-(1-Hydroxy-1-methyl-ethyl)-benzotriazol-1-yl]-pyrimidin-2-ylamino}-cyclohexyl)-(3-methyl-5,6-dihydro-8H-[1,2,4]triazolo[4,3-a]pyrazin-7-yl)-methanone] the value was 31 nM; for `CC(C)(O)c1cccc2c1nnn2-c1ccnc(N[C@H]2CC[C@H](C(=O)N3CCn4cnnc4C3)CC2)n1` [Compound 38, (5,6-Dihydro-8H-[1,2,4]triazolo[4,3-a]pyrazin-7-yl)-(4-{4-[4-(1-hydroxy-1-methyl-ethyl)-benzotriazol-1-yl]-pyrimidin-2-ylamino}-cyclohexyl)-methanone], 49 nM; for `Cc1cnc2n1CCN(C(=O)[C@H]1CC[C@H](Nc3nccc(-n4nnc5c(C(C)(C)O)cccc54)n3)CC1)C2` [Compound 41, (4-{4-[4-(1-Hydroxy-1-methyl-ethyl)-benzotriazol-1-yl]-pyrimidin-2-ylamino}-cyclohexyl)-(3-methyl-5,6-dihydro-8H-imidazo[1,2-a]pyrazin-7-yl)-methanone], 52 nM.
